Experimental data: US20220087983A1, “ACTIVATING PYRUVATE KINASE R” (FORMA Therapeutics, Inc., priority 2020, published 2022)

Assay: Phase 1: safety, adverse events in SCD patients
Type: in vivo, human
Procedure: All SCD patients who received a single 700 mg dose of Compound 1 or placebo were monitored for adverse events for 7 days. The incidence of treatment emergent adverse events (TEAEs) in SCD patients receiving Compound 1 (700 mg) or placebo are reported in Table 23. Six TEAEs were reported in 4 patients; all TEAEs were grade 1 and transient. Specifically, six TEAEs were reported in 4 of 7 (57%) patients, including 3 TEAEs (arthralgia, headache, palpitations) in 2 of 5 (40%) pts receiving Compound 1 and 3 TEAEs (back pain, myalgia, pruritis) in 2 of 2 (100%) pts receiving placebo; all TEAEs were grade 1 and transient. […] One possibly related TEAE (palpitations) occurred about 8 hours post dose. No other symptoms were observed, and the palpitations resolved in <1 minute. […] The single 700 mg dose of Compound 1 was considered tolerable, and the first multiple dose SCD cohort was initiated.
Based on data from the MAD1 (300 mg once daily for 14 days), Compound 1 is well-tolerated in patients with SCD. In all, eighteen TEAEs were reported in 7 of 9 patients in the MAD1 (300 mg once daily) cohort (N=9). These included (a) eight Grade 1 TEAEs, including 3 patients c/o headache, 1 each of nausea, constipation, somnolence, increased LDH and increased AST, of which two AEs considered to be possibly related to study treatment were reported by one patient each (1 AE of headache and 1 AE of nausea); (b) six Grade 2 TEAEs, including 3 uncomplicated sickle pain events (in 2 patients), 1 patient with N/V and 1 increased reticulocytes, of which no AEs were considered related to study treatment, all AEs of pain events were considered unrelated and consistent with each patient's SCD pain history, and all AEs were treated with patient's standard home pain medications (no SAE/no hospitalization); and (c) one Grade 4 TEAE of elevated creatine kinase, unrelated to study treatment. Non-treatment-related AEs were consistent with events experienced in this patient population. No treatment-related serious AEs were reported.

[1] = SCD MAD1, 300 mg × 14 days, n = 7

## O=C([C@H](CO)c1ccccc1)N1CC2=C(C1)CN(S(=O)(=O)c1cnc3c(c1)OCCO3)C2 (single isomer, unassigned) [Compound 1]
[1]
  Any serious adverse event (SAE), n (%): 0 n (%)
  TEAE related to study drug, n (%): 2 (29%) n (%)
SCD single dose cohort
  serious adverse events or TEAEs leading to withdrawal: No serious adverse events (SAEs) or TEAEs leading to pt withdrawal
SCD, single dose 700 mg, N = 5
  Any TEAE, n (%): 2 (40) n (%)
  TEAE related to study drug, n (%): 1 (20) n (%)
